Assay results from US20080280933A1, “BENZIMIDAZOLYL COMPOUNDS” (priority 2006, published 2008).

Target: T1, mGluR2 receptor (metabotropic glutamate receptor 2) (Homo sapiens, UniProt Q14416)
T1 construct: expressed in transfected cells
Experiment: mGluR2 Potentiator Screen, FLIPR, EC10-EC20 glutamate challenge
Assay type: cell-based
Conditions: read-out: EC50
Summary of the method: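 HEK cells stably co-expressing mGluR2 and Gα15, kept glutamine-free overnight, were loaded with Fluo-4 plus probenecid and GPT/pyruvate. Compounds (top 10 μM) were added ≥30 min before an EC10–EC20 glutamate challenge. Peak FLIPR fluorescence ratios were curve-fitted, excluding points above maximal effect, with maxima from on-plate standards.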

T1 sequence (Q14416 19-872, species assumed): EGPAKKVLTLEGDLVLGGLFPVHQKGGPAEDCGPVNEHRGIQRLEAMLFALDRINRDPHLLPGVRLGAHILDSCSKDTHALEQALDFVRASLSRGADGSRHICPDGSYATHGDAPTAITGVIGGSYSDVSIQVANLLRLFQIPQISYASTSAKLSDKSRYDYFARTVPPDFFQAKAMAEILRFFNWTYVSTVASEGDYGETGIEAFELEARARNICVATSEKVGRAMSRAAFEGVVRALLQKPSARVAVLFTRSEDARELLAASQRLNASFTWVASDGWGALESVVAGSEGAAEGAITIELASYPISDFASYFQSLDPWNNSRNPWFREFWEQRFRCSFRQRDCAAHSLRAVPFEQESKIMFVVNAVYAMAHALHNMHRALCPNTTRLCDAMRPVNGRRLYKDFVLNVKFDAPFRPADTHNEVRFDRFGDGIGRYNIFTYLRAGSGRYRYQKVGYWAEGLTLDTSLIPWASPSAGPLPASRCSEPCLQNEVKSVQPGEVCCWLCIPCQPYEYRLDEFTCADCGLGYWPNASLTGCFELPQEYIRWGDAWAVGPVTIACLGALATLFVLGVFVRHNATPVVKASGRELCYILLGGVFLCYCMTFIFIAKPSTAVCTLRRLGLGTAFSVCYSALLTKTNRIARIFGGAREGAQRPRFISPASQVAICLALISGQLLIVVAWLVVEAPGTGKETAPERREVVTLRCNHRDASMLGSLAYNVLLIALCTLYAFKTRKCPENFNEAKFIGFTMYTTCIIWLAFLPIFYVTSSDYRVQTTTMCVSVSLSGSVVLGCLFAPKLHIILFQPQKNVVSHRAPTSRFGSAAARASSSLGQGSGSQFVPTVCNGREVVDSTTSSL

SMILES	EC50
COc1ccccc1C1(OC)CCN(Cc2nc3ccccc3n2C)CC1C (stereo not drawn) [compound 332]	5220 nM
COc1ccccc1C1(OC)CCN(Cc2nc3c(Br)cccc3n2C)CC1C (stereo not drawn) [compound 333]	4760 nM
COc1ccccc1C1(OC)CCN(Cc2nc3ccccc3n2CF)CC1C (stereo not drawn) [compound 334]	> 7080 nM
COc1ccccc1C1(OC)CCN(Cc2nc3ccccc3n2CCF)CC1C (stereo not drawn) [compound 335]	10400 nM
Cn1c(CN2CCC(c3ccc(OC(F)(F)F)cc3)CC2)nc2ccccc21 [compound 340]	200 nM
Cn1c(CN2CCC(c3ccc(C(F)(F)F)cc3)CC2)nc2cccc(F)c21 [compound 341]	633 nM
Cn1c(CN2CCC(c3ccc(F)cc3)CC2)nc2cccc(F)c21 [compound 342]	55.2 nM
COc1ccccc1C1CCN(Cc2nc3cccc(F)c3n2C)CC1 [compound 343]	16.6 nM
Cn1c(CN2CCC(c3ccccc3F)CC2)nc2cccc(F)c21 [compound 344]	20.6 nM
Cn1c(CN2CCC(c3ccc(C(F)(F)F)cc3)CC2)nc2cc(Cl)ccc21 [compound 345]	1600 nM
Cn1c(CN2CCC(c3cc(C(F)(F)F)cc(C(F)(F)F)c3)CC2)nc2ccccc21 [compound 348]	201 nM
COc1cc(C(F)(F)F)ccc1C1CCN(Cc2nc3cc(F)ccc3n2C)CC1 [compound 349]	34.9 nM
Cn1c(CN2CCC(c3ccc(C(F)(F)F)cc3)CC2)nc2cc(F)ccc21 [compound 350]	147 nM
Cn1c(CN2CCC(c3ccccc3F)CC2)nc2cc(F)ccc21 [compound 351]	87.7 nM
Cn1c(CN2CCC(c3ccccc3F)CC2)nc2cc(F)ccc21 [compound 352]	88.5 nM
Cn1c(CN2CCC(c3ccc(C(F)(F)F)cc3F)CC2)nc2cc(F)ccc21 [compound 353]	< 40.2 nM
COc1cc(C(F)(F)F)ccc1C1CCN(Cc2nc3ccccc3n2C)CC1 [compound 355]	66.7 nM
COc1cc(C(F)(F)F)ccc1C1CCN(Cc2nc3c(Br)cccc3n2C)CC1 [compound 356]	3900 nM
COc1cc(C(F)(F)F)ccc1C1CCN(Cc2nc3ccccc3n2CCF)CC1 [compound 357]	105 nM
COCn1c(CN2CCC(c3ccc(C(F)(F)F)cc3OC)CC2)nc2ccccc21 [compound 358]	471 nM
COc1cc(C(F)(F)F)ccc1C1CCN(Cc2nc3ccccc3n2C2CC2)CC1 [compound 359]	940 nM
COc1cc(C(F)(F)F)ccc1C1CCN(Cc2nc3cc(F)c(F)cc3n2C)CC1 [compound 360]	266 nM

SMILES	EC50
Cn1c(CN2CCC(c3ccc(C(F)(F)F)cc3)CC2)nc2cc(C(F)(F)F)ccc21 [compound 362]	5010 nM
Cn1c(CN2CCC(c3ccc(C(F)(F)F)cc3)CC2)nc2cc(C(N)=O)ccc21 [compound 364]	498 nM
COCn1c(CN2CCC(c3ccc(F)cc3)CC2)nc2ccccc21 [compound 365]	1670 nM
Cn1c(CN2CCC(c3ccc(F)cc3)CC2)nc2c(Br)cccc21 [compound 366]	2140 nM
COCCn1c(CN2CCC(c3ccc(F)cc3)CC2)nc2ccccc21 [compound 367]	905 nM
Cn1c(CN2CCC(c3ccc(F)cc3)CC2)nc2cc(F)c(F)cc21 [compound 368]	475 nM
Fc1ccc(C2CCN(Cc3nc4ccccc4n3C3CC3)CC2)cc1 [compound 369]	1770 nM
FCCn1c(CN2CCC(c3ccc(F)cc3)CC2)nc2ccccc21 [compound 370]	582 nM
CC(C)Oc1ccccc1C1CCN(Cc2nc3cc(F)ccc3n2C)CC1 [compound 371]	692 nM
Cn1c(CN2CCC(c3cc(Cl)ccc3F)CC2)nc2cc(F)ccc21 [compound 372]	308 nM
Cn1c(CN2CCC(c3ccccc3C(F)(F)F)CC2)nc2cc(Cl)ccc21 [compound 373]	1750 nM
Cn1c(CN2CCC(c3cccc(C(F)(F)F)c3)CC2)nc2cc(F)ccc21 [compound 374]	245 nM
Cn1c(CN2CCC(c3cc(C(F)(F)F)ccc3F)CC2)nc2cc(F)ccc21 [compound 375]	348 nM
Cn1c(CN2CCC(c3cc(F)cc(F)c3)CC2)nc2cc(F)ccc21 [compound 376]	299 nM
COc1ccc(C(F)(F)F)cc1C1CCN(Cc2nc3cc(F)ccc3n2C)CC1 [compound 377]	853 nM
COc1cccc(C2CCN(Cc3nc4cc(F)ccc4n3C)CC2)c1 [compound 378]	568 nM
CC(C)Oc1ccccc1C1CCN(Cc2nc3cc(Cl)ccc3n2C)CC1 [compound 379]	1570 nM
Cn1c(CN2CCC(c3cc(Cl)ccc3F)CC2)nc2cc(Cl)ccc21 [compound 380]	1730 nM
Cn1c(CN2CCC(c3cccc(C(F)(F)F)c3)CC2)nc2cc(Cl)ccc21 [compound 381]	1590 nM
Cn1c(CN2CCC(c3cc(F)cc(F)c3)CC2)nc2cc(Cl)ccc21 [compound 382]	7060 nM
COc1cc(C(F)(F)F)ccc1C1CCN(Cc2nc3cc(Cl)ccc3n2C)CC1 [compound 383]	307 nM
Cn1c(CN2CCC(c3ccc(C(F)(F)F)cc3F)CC2)nc2cc(Cl)ccc21 [compound 384]	493 nM

SMILES	EC50
COc1cccc(C2CCN(Cc3nc4cc(Cl)ccc4n3C)CC2)c1 [compound 385]	2760 nM
COc1ccc(C(F)(F)F)cc1C1CCN(Cc2nc3cc(Cl)ccc3n2C)CC1 [compound 386]	> 3740 nM
Cn1c(CN2CCC(c3cc(Cl)ccc3F)CC2)nc2cc(C#N)ccc21 [compound 387]	201 nM
COc1ccc(C(F)(F)F)cc1C1CCN(Cc2nc3cc(C#N)ccc3n2C)CC1 [compound 388]	583 nM
Cn1c(CN2CCC(c3cccc(C(F)(F)F)c3)CC2)nc2cc(C#N)ccc21 [compound 389]	285 nM
COc1cc(C(F)(F)F)ccc1C1CCN(Cc2nc3cc(C#N)ccc3n2C)CC1 [compound 390]	52 nM
Cn1c(CN2CCC(c3ccc(C(F)(F)F)cc3F)CC2)nc2cc(C#N)ccc21 [compound 391]	44.4 nM
Cn1c(CN2CCC(c3cc(C(F)(F)F)ccc3F)CC2)nc2cc(C#N)ccc21 [compound 392]	441 nM
CC(C)Oc1ccccc1C1CCN(Cc2nc3c(F)cccc3n2C)CC1 [compound 393]	1030 nM
Cn1c(CN2CCC(c3ccccc3C(F)(F)F)CC2)nc2c(F)cccc21 [compound 394]	232 nM
Cn1c(CN2CCC(c3cc(F)cc(F)c3)CC2)nc2c(F)cccc21 [compound 395]	328 nM
Cn1c(CN2CCC(c3cccc(C(F)(F)F)c3)CC2)nc2c(F)cccc21 [compound 396]	123 nM
COc1ccc(C(F)(F)F)cc1C1CCN(Cc2nc3c(F)cccc3n2C)CC1 [compound 397]	435 nM
Cn1c(CN2CCC(c3ccc(C(F)(F)F)cc3F)CC2)nc2c(F)cccc21 [compound 398]	40.2 nM
COc1cc(C(F)(F)F)ccc1C1CCN(Cc2nc3c(F)cccc3n2C)CC1 [compound 399]	< 12.4 nM
COc1cc(C(F)(F)F)ccc1C1CCN(Cc2nc3c(F)cccc3n2C)CC1 [compound 400]	43.6 nM
Cn1c(CN2CCC(c3cc(C(F)(F)F)ccc3F)CC2)nc2c(F)cccc21 [compound 401]	161 nM
CC(C)Oc1ccccc1C1CCN(Cc2nc3cc(C#N)ccc3n2C)CC1 [compound 402]	523 nM
Cn1c(CN2CCC(c3ccccc3C(F)(F)F)CC2)nc2cc(C#N)ccc21 [compound 403]	224 nM
COc1cc(C(F)(F)F)ccc1C1CCN(Cc2nc3cccc(F)c3n2C)CC1 [compound 406]	117 nM
COc1cc(F)ccc1C1CCN(Cc2nc3cccc(F)c3n2C)CC1 [compound 407]	167 nM
COc1cc(F)ccc1C1CCN(Cc2nc3cc(F)ccc3n2C)CC1 [compound 408]	67.2 nM

SMILES	EC50
COc1cc(F)ccc1C1CCN(Cc2nc3ccccc3n2C)CC1 [compound 409]	63.4 nM
Cn1c(CN2CC[C@@H](c3ccc(F)cc3)[C@H](COc3ccc4c(c3)OCO4)C2)nc2ccccc21 [compound 410]	5260 nM
Cn1c(CN2CCC(c3ccc(C(F)(F)F)cc3)C(C)(C)C2)nc2ccccc21 (stereo not drawn) [compound 411]	633 nM
CC(C)Oc1ccc(C2CCN(Cc3nc4ccccc4n3C)CC2)cc1 [compound 412]	105 nM
Cn1c(CN2CCC(c3ccccc3OC(F)(F)F)CC2)nc2ccccc21 [compound 413]	77.6 nM
Cn1c(CN2CCC(c3cc(F)cc(F)c3)CC2)nc2ccccc21 [compound 414]	126 nM
Cn1c(CN2CCC(c3cc(F)cc(F)c3)CC2)nc2ccccc21 [compound 415]	189 nM
Cn1c(CN2CCC(c3ccccc3C#N)CC2)nc2ccccc21 [compound 416]	168 nM
Cn1c(CN2CCC(c3cccc(Cl)c3)CC2)nc2ccccc21 [compound 417]	180 nM
Cn1c(CN2CCC(c3cccc(C#N)c3)CC2)nc2ccccc21 [compound 418]	1610 nM
Cn1c(CN2CCC(c3cccc(C(C)(C)C)c3)CC2)nc2ccccc21 [compound 419]	149 nM
Cn1c(CN2CCC(c3ccc(Cl)cc3)CC2)nc2ccccc21 [compound 420]	664 nM
COc1ccc(C2CCN(Cc3nc4ccccc4n3C)CC2)cc1 [compound 421]	213 nM
Cn1c(CN2CCC(c3ccc(F)cc3F)CC2)nc2ccccc21 [compound 422]	14.6 nM
Cn1c(CN2CCC(c3ccc(F)cc3F)CC2)nc2cc(F)ccc21 [compound 423]	35.2 nM
Cn1c(CN2CCC(c3ccc(F)cc3F)CC2)nc2cccc(F)c21 [compound 424]	48.3 nM
COc1cc(C2CCN(Cc3nc4ccccc4n3C)CC2)ccc1F [compound 425]	434 nM
CCc1ccc(C2CCN(Cc3nc4ccccc4n3C)CC2)cc1 [compound 426]	89.2 nM
Cn1c(CN2CCC(c3ccc(F)cc3F)CC2)nc2cc(C#N)ccc21 [compound 427]	140 nM
Cn1c(CN2CCC(c3ccc(C(F)(F)F)cc3)C(O)C2)nc2ccccc21 (stereo not drawn) [compound 428]	1120 nM
Cc1ccccc1C1CCN(Cc2nc3ccccc3n2C)CC1 [compound 429]	65.1 nM
